Where “and” joins values, the source holds several entries; their conditions need not be identical. Equal values may be shown once.
How the values were obtained:
Format in all cases: in vivo, mouse
[1] = system: Nc/Nga mice with long term atopic dermatitis; test: Skin damage score, long term TNCB-induced atopic dermatitis
Procedure: (§1) Four weeks old male Nc/Nga mice were purchased from Orientbio Inc. (Korea) and bred at 24±2° C. and 50±10% relative humidity under 12 hours light/dark cycles. Animals were subject to 1-week acclimating period prior to the experiments.
The dorsal area of Nc/Nga mice was shaved, which was sensitized by applying 5% TNCB 150 µl. Then 1% TNCB solution made in olive oil was applied to the sensitized area for total 22 times over the period of 13 weeks.
(§2) Lipo-hPL (20 μg/ml) was topically applied 5 times per week for 6 weeks (short term) and 13 weeks (long term).
(§3) The skin damage was classified to 4 types as described in the Table 8. Based on the pictures taken every week for the inflamed dorsal area, the severity of the damage was evaluated and scored based on the 4 levels as shown below.

[2] = system: Nc/Nga mice with atopic dermatitis; test: Skin thickness measurement on H&E stained slides, Nc/Nga mice with atopic dermatitis
From the text: Upon the completion of all necessary treatments, affected areas of the dorsal skin was severed and fixed in 4% formaldehyde and set into a block using paraffin. The paraffin block was cut into 10 um thin slices using microtome, which were set on glass slides followed by stained with hematoxylin and eosin (H&E) before subject to the microscopic observation.
The tissue slides stained with H&E were photographed in order to measure the skin thickness ranging from exoderm, fat layer to the muscle layer using the appropriate software provided for the microscope utilized for the measurement of skin thickness.

serum IgE = test: Serum IgE measurement (ELISA) in Nc/Nga mice with atopic dermatitis; settings: TNCB-treated Nc/Nga mice, short term topical application (FIG. 13), Lipo-hPL 20 μg/ml
From the text: Atopic individuals can have up to 10 times the normal level of IgE in their blood, even though this may not be a requirement for symptoms to occur as has been seen in asthmatics with normal IgE levels in their blood—recent research has shown that IgE production can occur locally in the nasal mucosa (Takhar P et al. (2005) J Immunol 174 (8): 5024-32). After the completion of the Lipo-hPL treatment for the induced inflammation, blood was drawn from the great saphenons vein and the serum was obtained by centrifugation. The serum IgE was measured using the IgE ELISA kit (GomaBiotech, Korea).

[3] = system: Nc/Nga mice with short term atopic dermatitis; test: Skin damage score, short term TNCB-induced atopic dermatitis; settings: short term (6 weeks); for Overall damage: sum of erythema, edema, erosion, dryness divided by number of animals (3)
Procedure: as §1
First, the dorsal area of Nc/Nga mice was shaved, which was sensitized by applying 5% TNCB 150 µl. Then 1% TNCB solution made in olive oil was applied to the sensitized area once every week for 6 weeks.
as §2, §3

[4] = system: UVB-irradiated SKH-1 female nude mice; test: Wrinkle improving effects in UVB-irradiated SKH-1 hairless nude mice (Donald method); parameters: key: —: No wrinkle formation; *: Slightly deep and thick wrinkle; **: Slightly to moderately deep and thick wrinkle; ***: Moderately deep and thick wrinkle; ****: Moderately to severely deep and thick wrinkle; *****: Severely deep and thick wrinkle; settings: SKH-1 nude mice, U.V. irradiation Yes, 0.1% retinoic acid in 15% EtOH
Procedure: The 4-week-old SKH-1 female nude mice were purchased from Douyul Biotech, Sungnam, Korea). The animal breeding chambers were kept at 24±0.2° C. and relative humidity at 50±10% in a 12-hr light/12-hr dark cycle. The animals were permitted free access to solid feed (Central Lab. Animal Inc., Seoul, Korea) and water sterilized by irradiation and acclimated for about 2 weeks before divided them into 7 groups by random selection.
In order to induce wrinkle formation on the backside of the nude mice, UVB was irradiated to the mice three times a week for 11 weeks using the VLX-3W stimulator (Vilber Lourmat, Marne la Vallee, France) in the protocol: 30 mJ/cm^2 for the weeks 1 and 2, 40 mJ/cm^2 for the weeks 3 and 4, 50 mJ/cm^2 for the weeks 5 through 9, and 60 mJ/cm^2 for the weeks 10 and 11. […]
The wrinkle-improving effect was evaluated according to the Donald method (Hyun-Seok Kim et. al, Mech. Ageing Dev. 126:1255-61, 2005). […] In the present invention, the effects of Lipo-hPL and other skin-conditioning agents on wrinkle formation were evaluated by observing changes of the thickness and depth of wrinkles before and after treatments.

[5] = long term (13 weeks), scores summed over 2 animals, Lipo-hPL 20 μg/ml topical 5 times per week
[6] = score 0-3 per animal summed over 3 animals, Lipo-hPL 20 μg/ml topical 5 times per week

Row | SMILES | Dryness [1, 5] | Edema [1, 5] | Erosion [1, 5] | Erythema [1, 5] | Overall damage ([1]; long term (13 weeks), sum of erythema, edema, erosion, dryness divided by number of animals (2)) | Long term skin damages score ([1]; long term, out of 10 as the most severe damage) | Exodermal thickness of animals treated with TNCB only relative to treated animals [2] | Average skin thickness (epidermis, dermis and subcutaneous layer) ([2]; TNCB-treated Nc/Nga mice, long term topical application (FIG. 16)) [μm] | IgE (serum IgE) [ng/mL] | Dryness [3, 6] | Edema [3, 6] | Erosion [3, 6] | Erythema [3, 6] | Overall damage [3] | Overall damage ([3]; listed as FK506) | Changes in wrinkle depth and thickness ([4]; Appendix Table 5, topical 11 weeks, 20 μg/ml Lipo-hPL, 4.1 μg/ml Lipo-his-hPL) | Changes in wrinkle depth and thickness ([4]; topical 5 times a week for 11 weeks, 20 µg/ml Lipo-hPL, 4 µg/ml Lipo-his-hPL)
1 | C=CC[C@@H]1/C=C(\C)C[C@H](C)C[C@H](OC)[C@H]2O[C@@](O)(C(=O)C(=O)N3CCCC[C@H]3C(=O)O[C@H](/C(C)=C/[C@@H]3CC[C@@H](O)[C@H](OC)C3)[C@H](C)[C@@H](O)CC1=O)[C@H](C)C[C@@H]2OC [Tacrolimua (FK506), Tacrolimua] | 3 | 1.5 | 3.5 | 1.5 | 4.75 and 4.8 | 2.4±0.7 | approximately 10 folds | 408.0±23.4 | 107.1 | 3 | 0 | 3 | 3 | 3.0 | 3.0±0.3 | – | –
2 | CC1=C(/C=C/C(C)=C/C=C/C(C)=C/C(=O)O)C(C)(C)CCC1 [Retinoic acid, retinoic acid] | – | – | – | – | – | – | – | – | – | – | – | – | – | – | – | ** | **
